{"source": "patent EP0002933A1", "about": "“Method for assessing cancerous malignancy or benignity and diagnostic pack for use therein” (Gosalvez, Mario Gosalvez, priority 1977, dated 1979)", "key": {"[1]": {"system": "pyruvate kinase", "assay": "ATP inhibition of pyruvate kinase in cell homogenates (compound optical assay, NADH at 340 mµ)", "format": "biochemical", "from_the_text": "(§1) In more detail, the theoretical basis of this new method is as follows. -The step-wise degradation of glucose to pyruvic acid, according to the well-known Embden-Myerhof pathway, includes the reaction: [drawing 3] wherein ADP and ATP are, respectively, adenosine diphosphate and adenosine triphosphate. In healthy cells this reaction is suppressed by ATP inhibition of the enzyme pyruvate kinase. I have discovered, as previously noted, that in cancerous cells the reaction proceeds in greater or less degree, correlative to the degree of malignancy, in proportion to the extent to which ATP fails to inhibit pyruvate kinase activity. A preferred assay, therefore, involves assessment of the progress of the foregoing reaction in the presence of various levels of ATP calculated to reveal the extent, if any, by which sample-derived pyruvate kinase activity is inhibited by ATP. The extent of such inhibition can be characterised on a percentage scale relative to the foregoing reaction, taking 0% as no inhibition, 100% as total inhibition, and \"maximum percent inhibition of pyruvate kinase activity\" as that point on the scale beyond which addition of further ATP essentially fails to affect further the progress of the reaction.\n(§2) An especially preferred method of following the reaction spectrophotometrically involves compound optical assay, in which the influence of the reaction under study on a secondary reaction with an observable end product is followed. See Felu, FEBS Letters 50, 334 (1975) and Bucher, T. et al., in : Methods in Enzymology, Vol. I (S.P. Colowick and N.O. Kaplan, eds.) Academic Press, N.Y. p. 435. Thus, in the compound reaction: [drawing 4] pyruvate kinase activity can be monitored by observing the rate of disappearance of the band (at 340 m µ) of the hydrogen donor NADH (nicotinamide adenine dinucleotide, reduced form). Successive repetitions of the assay with differing amounts of added ATP establish the point beyond which ATP addition fails to influence the rate of disappearance of the hydrogen donor.\nSamples for assay may be obtained as whole tissue (e.g., of volume 1-10 mm^3) in the case of suspected tumours, by intraoperatorybiopsy or needle biopsy. In the case of suspected blood malignancies, the collection of white blood cells by differential centrifugation is sufficient. Samples are preserved on ice pending the preparation of homogenates suitable for assay. Homogenisation frees cell-contained pyruvate kinase for assay and involves cell disruption by conventional techniques which avoid, to a useful degree, the destruction of nuclei, mitochondria and other cell particulates. Typically, the sample may be placed in a hand homogeniser which is supplied with the assay kit, in buffered isotonic solution, and homogenised with several strokes of a pestle. From, e.g., 0.1 to 1 ml of buffered solution, depending on the size of the sample, is preferably employed. As one of many appropriate buffers may be mentioned a solution comprising 50 mM Tris-HC1, pH 7.0, 0.1 mM EDTA and 0.5 mM dithioerythritol. In the preferred embodiment of the invention the homogenate is next centrifuged, for example at about 5,000-10,000 rpm in a conical centrifuge tube for 10 minutes, and the supernatant is dialysed against water (e.g., for 2 hours at about 2-4°C.). The contents of the dialysis bag are then transferred to a tube immersed in ice. In the case of large samples, the centrifugation and dialysis steps may be omitted, as will be appreciated by the art-skilled. Preferably, however, a dialysis bag is supplied with the kit. As used herein, the term \"homogenate\" refers to a free enzyme-containing product of homogenisation, whether or not accompanied by other cellular debris. […]"}, "[2]": {"system": "pyruvate kinase", "assay": "ATP inhibition of pyruvate kinase in cell homogenates (compound optical assay, NADH at 340 mµ)", "format": "biochemical, Mouse", "from_the_text": "as §1, §2\nSamples for assay may be obtained as whole tissue (e.g., of volume 1-10 mm^3) in the case of suspected tumours, by intraoperatorybiopsy or needle biopsy. In the case of suspected blood malignancies, the collection of white blood cells by differential centrifugation is sufficient. Samples are preserved on ice pending the preparation of homogenates suitable for assay. Homogenisation frees cell-contained pyruvate kinase for assay and involves cell disruption by conventional techniques which avoid, to a useful degree, the destruction of nuclei, mitochondria and other cell particulates. Typically, the sample may be placed in a hand homogeniser which is supplied with the assay kit, in buffered isotonic solution, and homogenised with several strokes of a pestle. […]"}}, "data": [{"smiles": "Nc1ncnc2c1ncn2[C@@H]1O[C@H](COP(=O)(O)OP(=O)(O)OP(=O)(O)O)[C@@H](O)[C@H]1O", "note": "[ATP, adenosine triphosphate]", "values": [{"measurement": "MAXIMUM % INHIBITION OF PYRUVATE KINASE BY ATP", "setting": "[1]; Acute lympho-blastic leukaemia, Human, Moderately malign", "result": 32, "unit": "%"}, {"measurement": "MAXIMUM % INHIBITION OF PYRUVATE KINASE BY ATP", "setting": "[1]; Cerebral ependonoma, Human, Benign", "result": 40, "unit": "%"}, {"measurement": "MAXIMUM % INHIBITION OF PYRUVATE KINASE BY ATP", "setting": "[1]; Glioma, Human, Malign", "result": 15, "unit": "%"}, {"measurement": "MAXIMUM % INHIBITION OF PYRUVATE KINASE BY ATP", "setting": "[1]; Mammary carcinoma, Human, Malign", "result": 17, "unit": "%"}, {"measurement": "MAXIMUM % INHIBITION OF PYRUVATE KINASE BY ATP", "setting": "[1]; Mammary fibro-adenoma, Rat, Very benign", "result": 49, "unit": "%"}, {"measurement": "MAXIMUM % INHIBITION OF PYRUVATE KINASE BY ATP", "setting": "[1]; Multiform glioma, Human, Very malign", "result": 4, "unit": "%"}, {"measurement": "MAXIMUM % INHIBITION OF PYRUVATE KINASE BY ATP", "setting": "[1]; Normal liver, Human, No cell growth", "result": 99, "unit": "%"}, {"measurement": "MAXIMUM % INHIBITION OF PYRUVATE KINASE BY ATP", "setting": "[1]; Normal tissue, Rat, No cell growth", "result": 99, "unit": "%"}, {"measurement": "MAXIMUM % INHIBITION OF PYRUVATE KINASE BY ATP", "setting": "[1]; Ovarian carcinoma, Human, Malign", "result": 10, "unit": "%"}, {"measurement": "MAXIMUM % INHIBITION OF PYRUVATE KINASE BY ATP", "setting": "[1]; Walter Carcino-sarcoma, Rat, Malign", "result": 22, "unit": "%"}, {"measurement": "MAXIMUM % INHIBITION OF PYRUVATE KINASE BY ATP", "setting": "[2]; Erhlich ascites (Paris strain), Mouse, Very high growth rate", "result": 4, "unit": "%"}, {"measurement": "MAXIMUM % INHIBITION OF PYRUVATE KINASE BY ATP", "setting": "[2]; Erhlich ascites tumour (Rome Strain), Mouse, Slow growth rate", "result": 39, "unit": "%"}, {"measurement": "MAXIMUM % INHIBITION OF PYRUVATE KINASE BY ATP", "setting": "[2]; Leukaemia 1210, Mouse, Very malign", "result": 16, "unit": "%"}, {"measurement": "MAXIMUM % INHIBITION OF PYRUVATE KINASE BY ATP", "setting": "[2]; Leukaemia P-P388, Mouse, Malign", "result": 25, "unit": "%"}]}]}
